Experimental data reported in US8497241B2, “WNT10-derived peptide and use thereof” (Caregen Co., Ltd., priority 2009, dated 2013).
Entries after “also recorded” stand apart in the source; their conditions may differ.

Tests used:
[1] = test system: Hair follicle of Balb/C mouse; assay: Mouse hair follicle culture, H&E staining; assay type: cell-based; conditions: 5 days culture, FIG. 13a
Procedure: Hair follicle of Balb/C mouse hair was dissected with a surgical mess and washed with ethanol, followed by additionally washing with PBS and DMEM culture solution. Hereafter, hair follicles were incubated with 5 μg/ml of each peptide complex dissolved in DMEM culture solution, and cultured under 5% CO2 for 5 days at 37° C. After 5 days-culture, hair follicles were prepared as a paraffin block and each tissue treated with control, peptide complex, DKK-1, and DKK-1 and peptide complex was stained and compared using H&E staining (FIGS. 13a-13d).

[2] = test system: WNT protein; assay: Mouse hair follicle culture, WNT protein immunostaining; assay type: cell-based; conditions: 5 days culture, FIG. 13c
[3] = test system: Ki-67 protein; assay: Mouse hair follicle culture, Ki-67 immunostaining; assay type: cell-based; conditions: 5 days culture, FIG. 13d
[4] = test system: fibronectin; assay: Fibronectin ELISA in NIH3T3 fibroblasts; assay type: cell-based; conditions: NIH3T3, FIG. 9b
Procedure: To verify whether the peptides synthesized in preparation Example 1 enhances the expression of fibronectin as a WNT target protein, NIH3T3 fibroblasts (4×10^3 cells) was added to each well of 96-well plates and cultured under 5% CO2 for 24 hr at 37° C. After 24-hr culture, the medium was changed with a fresh medium without serum and cells were treated with empty sample (for normalization), three peptides synthesized (1 μg/ml) and peptide complex (1 μg/ml) aseptically dissolved in 10% DMSO for 3 hr, 10 hr, 24 hr or 48 hr under the same conditions as described above. After 72 hr incubation, the cell culture was collected and the expression level of fibronectin was measured using Fibronectin ELISA kit (R&D systems, USA).

[5] = test system: β-catenin; assay: Western blot of β-catenin in HaCaT keratinocytes; assay type: cell-based; conditions: FIG. 6a; for expression level of β-catenin: 5 hr, single treatment; for β-catenin expression in the presence of DKK-1: treatment with both DKK-1 and peptide
Procedure: (§1) HaCaT kerationcytes cultured for 48 hr were incubated with the peptides synthesized in preparation Example 1 for 5 hr. The expression level of β-catenin was examined, which is an essential signal molecule to promote hair growth as a representative signaling of WNT protein. The amount of β-catenin was measured by Western blot analysis using an antibody against β-catenin (SantaCruz, USA). In addition, it was observed by an immunohistochemical assay using the same whether β-catenin is translocated into a nucleus. […] Besides, […] activities were also observed in cytosol as β-catenin is still present in cytosol (FIG. 6b).

[6] = test system: β-catenin; assay: Mouse hair follicle culture, β-catenin immunostaining; assay type: cell-based; conditions: 5 days culture, FIG. 13b
[7] = test system: NIH3T3 fibroblasts; assay: SRB colorimetric assay of cell growth in NIH3T3 fibroblasts; assay type: cell-based
Procedure: (§2) In order to evaluate three peptides prepared in Preparation Examples 1-2 whether they have similar activities of growth factor, SRB (Sulforhodamine B; Sigma-Aldrich) colorimetric assay was carried out using HaCaT kerationcytes (Korean Cell Line Bank) and NIH3T3 fibroblasts (Korean Cell Line Bank) according to Rizzino et al. method (Rizzino, et al. Cancer Res., 48: 4266 (1988)).
(§3) HaCaT ketatinocytes and NIH3T3 fibroblasts were cultured in 250 ml-flasks containing EMEM (Eagle's minimal essential media; Gibco, USA) supplemented with 10% FBS (fetal bovine serum; Sigma). Cells cultured were treated with 1% trypsin solution to detach cells from the bottom of culture flasks and centrifuged to collect cell pellets. After cells were resuspended in EMEM not containing FBS, its aliquot (3×10^3 cells) was added to each well of 96-well plates and cultured under 5% CO2 for 24 hr at 37° C. After 24-hr culture, the medium was changed with a fresh medium without serum and cells were incubated with empty sample (for normalization), three peptides synthesized (1 ng/ml, 10 ng/ml, 100 ng/ml, 1 μg/ml and 10 μg/ml) and peptide complex (1 μg/ml) aseptically dissolved in 10% DMSO for 72 hr under the same conditions as described above. […] In addition, absorbance at 590 nm was measured to analyze cell viability. […]

[8] = test system: HaCaT kerationcytes; assay: SRB colorimetric assay of cell growth in HaCaT keratinocytes; assay type: cell-based; conditions: 72 hr
Procedure: as §2, §3

[9] = test system: β-catenin; assay: Immunohistochemical assay of β-catenin translocation into nucleus in HaCaT keratinocytes; assay type: cell-based; conditions: FIG. 6b
Procedure: as §1

[10] = test system: C57BL/6 mouse; assay: Mouse hair growth, topical nanosome on back skin; assay type: in vivo; conditions: twice every day
From the text: The peptide synthesized in Preparation Example 1 was formulated into nanosome. Afterwards, the back of C57BL/6 mouse was partially removed and then the skin was topically administered with the nanosome twice every day for 15 days.

[11] = test system: Ki-67 protein; assay: Ki-67 immunostaining (cell proliferation marker) in keratinocytes; assay type: cell-based; conditions: FIG. 4

Substance | hair follicles (H&E), single treatment [1] | expression of WNT protein in hair follicle, single treatment [2] | expression of Ki-67 protein in hair follicle, single treatment [3] | fibronectin expression, DKK-1 alone [4] | expression level of β-catenin ([5]; FIG. 8) | expression of β-catenin in hair follicle, single treatment [6] | proliferation and cell shape under a microscope, fibroblasts ([7]; 72 hr, FIG. 3) | growth of fibroblasts ([7]; NIH3T3, 72 hr, 1 ng/ml to 10 μg/ml, FIG. 2b) | proliferation and cell shape under a microscope, keratinocytes ([8]; FIG. 3) | growth of keratinocytes ([8]; HaCaT, 1 ng/ml to 10 μg/ml, FIG. 2a) | translocation of β-catenin to nucleus / β-catenin activity by immunostaining [9] | translocation of β-catenin to nucleus / β-catenin activity by immunostaining ([9]; listed as the present peptide) | hair growth on mouse back skin at 9 days-treatment ([10]; C57BL/6) | amount of hair in mouse back skin at 15 days-treatment compared with control group ([10]; C57BL/6, FIG. 12) | expression of Ki-67 protein in keratinocytes [11] | expression level of fibronectin in treatment with both DKK-1 and peptide ([4]; listed as the present peptide) | expression level of β-catenin ([5]; FIG. 8, listed as the present peptide) | β-catenin expression in the presence of DKK-1 [5] | β-catenin expression in the presence of DKK-1 ([5]; listed as the present peptide)
DKK-1: a WNT inhibitor and a β-catenin signaling inhibitor, hair loss gene | degenerated | inhibited | suppressed | inhibited | reduced | inhibited |  |  |  |  |  |  |  |  |  |  |  |  | 
H-RQTRVQRCHC-OH (cysteine pairing not given here) [the peptide of the present invention] |  |  |  |  | significantly elevated |  | promotes proliferation of keratinocytes and fibroblasts, and changes their morphological shapes | notably increases the growth | promotes proliferation of keratinocytes and fibroblasts, and changes their morphological shapes | notably increases the growth of keratinocytes | elevated activity of β-catenin | contributes to translocation of β-catenin from cytosol to nucleus | growing hair was observed | much significantly enhanced | remarkably enhanced | restored and enhanced; also recorded: recovered | enhancement of β-catenin expression; also recorded: induces elevated activity of β-catenin | β-catenin activity is observed | re-increase of the expression of β-catenin; also recorded: restored and enhanced
